Results taken from ChEMBL document CHEMBL1132037, “Anabaenopeptins G and H, potent carboxypeptidase A inhibitors from the cyanobacterium Oscillatoria agardhii (NIES-595)” (Bioorg Med Chem Lett, 1999).
In brackets after ≈: the same amount, converted by molar mass. Numbered stars: 1 amine (or outer) side, 2 acyl side, 3 side chain; on linkers, the order of the positions; unused ones are H or OH. Bridge positions count the residues as written; N and C are the ends. Square brackets hold non-standard residues; d marks the D form. Peptide text beside a SMILES is read from it. NMehTyr = CN[C@@H](CCc1ccc(O)cc1)C(=O)O; hTyr = N[C@@H](CCc1ccc(O)cc1)C(=O)O; NMeA = CN[C@@H](C)C(=O)O; CO = O=C([*:1])[*:2]

What was measured:
[1] = molecular target: Carboxypeptidase A1 (Bos taurus) (UniProt P00730); assay: Ability to inhibit Carboxypeptidase A from bovine pancreas at a concentration of 50 ug/mL; No Activity
[2] = molecular target: Carboxypeptidase A1 (Bos taurus) (UniProt P00730); assay: Ability to inhibit Carboxypeptidase A from bovine pancreas

IC50 [1]	IC50 [2]	Compound
	0.0018 µg/mL (≈ 0.00194 µM)	CC[C@H](C)[C@@H]1NC(=O)[C@H](NC(=O)NC(Cc2ccc(O)cc2)C(=O)O)CCCCNC(=O)[C@H]([C@@H](C)CC)NC(=O)[C@H](CCc2ccc(O)cc2)N(C)C(=O)[C@H](CCc2ccc(O)cc2)NC1=O (stereo partly specified)
Not Active		CC[C@H](C)[C@@H]1NC(=O)[C@H](NC(=O)N[C@@H](CCCNC(=N)N)C(=O)O)CCCCNC(=O)[C@H](Cc2ccccc2)NC(=O)[C@H](C)N(C)C(=O)[C@H](CCc2ccc(O)cc2)NC1=O [ANABAENOPEPTIN F] ({Arg-CO}-[dK]I[hTyr][NMeA]F; lactam 1-C)
	3.4 µg/mL (≈ 3.68 µM)	CC[C@H](C)[C@@H]1NC(=O)[C@H](NC(=O)N[C@@H](CCCNC(=N)N)C(=O)O)CCCCNC(=O)[C@H]([C@@H](C)CC)NC(=O)[C@H](CCc2ccc(O)cc2)N(C)C(=O)[C@H](CCc2ccc(O)cc2)NC1=O [ANABAENOPEPTIN H] ({Arg-CO}-[dK]I[hTyr][NMehTyr]I; lactam 1-C)

The remaining lines, values behind:

Compound	IC50 [1]	IC50 [2]
COc1ccc(CC[C@@H]2NC(=O)[C@H](C(C)C)NC(=O)[C@H](NC(=O)N[C@@H](CCCN=C(N)N)C(=O)O)CCCCNC(=O)[C@H](Cc3ccccc3)NC(=O)[C@H](C)N(C)C2=O)cc1	Not Active	
CC(C)[C@@H]1NC(=O)[C@H](NC(=O)N[C@@H](CCCNC(=N)N)C(=O)O)CCCCNC(=O)[C@H](Cc2ccccc2)NC(=O)[C@H](C)N(C)C(=O)[C@H](CCc2ccc(O)cc2)NC1=O [ANABAENOPEPTIN B] ({Arg-CO}-[dK]V[hTyr][NMeA]F; lactam 1-C)	Not Active	
CC[C@H](C)[C@H](NC(=O)N[C@@H]1CCCCNC(=O)[C@H]([C@@H](C)CC)NC(=O)[C@H](CCc2ccc(O)cc2)N(C)C(=O)[C@H](CCc2ccc(O)cc2)NC(=O)[C@H](C(C)C)NC1=O)C(=O)O [ANABAENOPEPTIN T]		2 µg/mL (≈ 2.31 µM)
